Data set [1] deals with T1, GST-hLGK1 (human liver type GK) (Homo sapiens, UniProt P35557).
T1 construct: with a BamHI site added to immediately before the initiation codon; made in house; host or cells: Escherichia coli BL21
T1 sequence (P35557 1-464 isoform P35557-3): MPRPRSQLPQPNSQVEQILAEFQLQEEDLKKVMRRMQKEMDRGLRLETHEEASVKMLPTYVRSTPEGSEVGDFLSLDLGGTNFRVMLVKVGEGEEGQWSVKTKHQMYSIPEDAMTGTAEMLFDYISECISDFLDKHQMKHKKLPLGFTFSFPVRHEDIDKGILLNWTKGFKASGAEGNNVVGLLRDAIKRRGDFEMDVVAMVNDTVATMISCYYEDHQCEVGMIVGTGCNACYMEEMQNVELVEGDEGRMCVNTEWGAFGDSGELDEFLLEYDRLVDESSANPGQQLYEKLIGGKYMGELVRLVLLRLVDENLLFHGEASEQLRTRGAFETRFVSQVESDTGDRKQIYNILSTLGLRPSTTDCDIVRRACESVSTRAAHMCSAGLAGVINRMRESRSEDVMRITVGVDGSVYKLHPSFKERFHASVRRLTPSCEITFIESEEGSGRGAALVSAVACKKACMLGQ
The experiment in a line: Determination of GK activity value (Mant-ATP conversion, capillary electrophoresis). Format: biochemical. The following applies: concentration necessary for activating 50% of the maximum GK activity value, 37° C., 60 min, D-glucose added. The method, then: A solution (5 μL) of test compound in 50% dimethyl sulfoxide was added to each well of 384 well black plate (Nalge Nunc International K.K.). Then, a solution (35 μL) obtained by diluting GST-hLGK1 obtained in Reference Example 2A with measurement buffer (containing 50 mM HEPES (pH 7.4), 200 mM KCl, 5 mM MgCl2, 2.5 mM DTT and 50 μM 2′-(or -3′)-O—(N-methylanthraniloyl)adenosine 5′-triphosphate (Mant-ATP) (Jena Bioscience GmbH)) to 6 μg/mL was added to each well.
Each well was stood at 37° C. for 10 min, and 25 mM D-glucose solution (10 μL) was added to start the reaction.
Each well after the reaction was stood at 37° C. for 60 min, and the reaction was quenched by adding 25 μL of a quenching solution (containing 200 mM HEPES (pH 7.4), 20 mM MgCl2, 200 mM EDTA, 0.03% Triton-X 100, 0.3% Coating 3 reagent (Caliper Life Sciences, Inc.)).
Mant-ATP (substrate) and Mant-ADP (reaction resultant product) were separated from each well after the reaction by a microchip type capillary electrophoresis apparatus 250 HTS (Caliper Life Sciences, Inc.). The reaction rate [(reaction resultant product peak height)/(reaction resultant product peak height+substrate peak height)×100(%)] was calculated from the ratio of the substrate peak height and reaction resultant product peak height obtained by fluorescence detection (excitation wavelength 355 nm, measurement wavelength 460 nm) and used as the index of GK activity.
As a control group, the reaction rate was calculated in the same manner as above except that “solution in 50% dimethyl sulfoxide” was used instead of “solution of test compound in 50% dimethyl sulfoxide”.
The percentage obtained by dividing the reaction rate of the well added with the test compound (test compound addition group) by the reaction rate of the well added with 50% solution in dimethyl sulfoxide alone (control group) was taken as the GK activity value of the test compound, and the concentration of the test compound necessary for activating 50% of the maximum value of the activity value is shown as EC50 value.

`CN(c1ccc(F)c2cc(-c3nccs3)[nH]c12)S(=O)(=O)c1cccs1` [Example 182, N-[4-fluoro-2-(1,3-thiazol-2-yl)-1H-indol-7-yl]-N-methylthiophene-2-sulfonamide]: the melting point lay in the range of 197 to 198 °C. This molecule also yielded a concentration for a half-maximal effect (EC50) in data set [1] of 0.029 µM. In the case of `CNc1nc(-c2cc3cccc(N(C)S(=O)(=O)c4cccs4)c3[nH]2)cs1` [Example 174, N-Methyl-N-{2-[2-(methylamino)-1,3-thiazol-4-yl]-1H-indol-7-yl}thiophene-2-sulfonamide], the melting point was 162 to 163 °C. On the same count and under the same terms, to `CCN(c1cc(C)c(C)c2cc(-c3ncc(CO)s3)[nH]c12)S(=O)(=O)c1cccs1` [Example 254, N-Ethyl-N-{2-[5-(hydroxymethyl)-1,3-thiazol-2-yl]-4,5-dimethyl-1H-indol-7-yl}thiophene-2-sulfonamide] belongs 189 to 190 °C.

(Values after patent US8957070B2, “Glucokinase activator compounds, methods of activating glucokinase and methods of treating diabetes and obesity” (Takeda Pharmaceutical Company Limited, priority 2005, dated 2015).)
